The source made the active and inactive calls. The rule behind the calls is not given here.
Legend:
[1] = Induction of apoptosis in mouse BaF3 cells stably expressing wildtype KIF5B-RET fusion protein assessed as late apoptotic cells at 300 nM measured after 48 hrs by Annexin V-FITC/7-AAD staining based flow cytometric analysis (reference value: 1.03 %); format: functional
[2] = Effect on Shc protein level in mouse BaF3 cells stably expressing KIF5B-RET-G810R mutant assessed as fold change at 300 nM measured after 6 hrs by Western blot analysis (reference value: 1); format: functional
[3] = target: Protein cereblon/Eukaryotic peptide chain release factor GTP-binding subunit ERF3A (Mus musculus) (UniProt Q8C7D2+Q8R050); assay: PROTAC activity at CRBN/GSPT1 in mouse BaF3 cells overexpressing KIF5B-RET assessed as induction of GSPT1 degradation at 10 to 1000 nM incubated for 6 hrs by Western blot analysis; format: cell-based; conditions: dose 10-1000 nM
[4] = tested on: Kinesin-1 heavy chain/ Tyrosine-protein kinase receptor RET (Homo sapiens), P07949+P33176 [G810C]; assay: In vivo PROTAC activity at CRBN/KIF5B-RET-G810C mutant in male BALB/c mouse model implanted with mouse BaF3 cells stably expressing KIF5B-RET-G810C mutant assessed as induction of RET degradation in tumor at 30 mg/kg, ip measured after 3 days by Western blotting analysis relative to control; format: functional, organism-based; conditions: time 3.0 day
[5] = Effect on Shc protein level in mouse BaF3 cells stably expressing KIF5B-RET-G810C mutant assessed as fold change at 11.1 nM measured after 6 hrs by Western blot analysis (reference value: 1); format: functional
[6] = Induction of apoptosis in mouse BaF3 cells stably expressing KIF5B-RET-G810C mutant assessed as early apoptotic cells at 900 nM measured after 48 hrs by Annexin V-FITC/7-AAD staining based flow cytometric analysis (reference value: 8.57 %); format: functional
[7] = Potency index, ratio of selpercatinib IC50 to test compound IC50 for antiproliferative activity against mouse BaF3 cells stably expressing KIF5B-RET-G810C mutant incubated for 72 hrs by CCK-8 assay; format: functional
[8] = Induction of apoptosis in mouse BaF3 cells stably expressing KIF5B-RET-G810C mutant assessed as necrotic cells at 33.3 nM measured after 48 hrs by Annexin V-FITC/7-AAD staining based flow cytometric analysis (reference value: 2.89 %); format: functional
[9] = Induction of apoptosis in mouse BaF3 cells stably expressing wildtype KIF5B-RET fusion protein assessed as viable cells at 33.3 nM measured after 48 hrs by Annexin V-FITC/7-AAD staining based flow cytometric analysis (reference value: 86.65 %); format: functional; conditions: read-out: Activity
[10] = Effect on Shc protein level in mouse BaF3 cells stably expressing KIF5B-RET-V804M mutant assessed as fold change at 300 nM measured after 6 hrs by Western blot analysis (reference value: 1); format: functional
[11] = Induction of apoptosis in mouse BaF3 cells stably expressing wildtype KIF5B-RET fusion protein assessed as necrotic cells at 33.3 nM measured after 48 hrs by Annexin V-FITC/7-AAD staining based flow cytometric analysis (reference value: 2.40 %); format: functional
[12] = Effect on RET protein level in mouse BaF3 cells stably expressing KIF5B-RET-G810R mutant assessed as fold change at 100 nM measured after 6 hrs by Western blot analysis (reference value: 1); format: functional
BaF3 [13] = assay: Antitumor activity against mouse BaF3 cells stably expressing KIF5B-RET-G810C mutant implanted in male BALB/c mouse model assessed as tumor growth inhibition at 30 mg/kg, ip administered daily for 14 days relative to control; format: functional; conditions: BaF3, 336 h, time 14 day, read-out: TGI
[14] = PROTAC activity at CRBN/KIF5B-RET-G810R mutant (unknown origin) expressed in mouse BaF3 cells assessed as induction of RET degradation measured after 6 hrs by Western blot analysis; format: cell-based; conditions: BaF3, 6 h
[15] = Potency index, ratio of selpercatinib IC50 to test compound IC50 for antiproliferative activity against mouse BaF3 cells stably expressing KIF5B-RET-G810S mutant incubated for 72 hrs by CCK-8 assay; format: functional
[16] = Effect on Shc protein level in mouse BaF3 cells stably expressing KIF5B-RET-V804M mutant assessed as fold change at 100 nM measured after 6 hrs by Western blot analysis (reference value: 1); format: functional
[17] = Induction of apoptosis in mouse BaF3 cells stably expressing wildtype KIF5B-RET fusion protein assessed as early apoptotic cells at 33.3 nM measured after 48 hrs by Annexin V-FITC/7-AAD staining based flow cytometric analysis (reference value: 9.92 %); format: functional
BaF3 [18] = assay: Antiproliferative activity against mouse BaF3 cells stably expressing CCDC6-RET-V804M mutant incubated for 72 hrs by CCK-8 assay; format: functional, cell-based; conditions: BaF3, 72 h
[19] = Induction of apoptosis in mouse BaF3 cells stably expressing KIF5B-RET-G810C mutant assessed as late apoptotic cells at 300 nM measured after 48 hrs by Annexin V-FITC/7-AAD staining based flow cytometric analysis (reference value: 1.96 %); format: functional
[20] = Induction of apoptosis in mouse BaF3 cells stably expressing KIF5B-RET-G810C mutant assessed as late apoptotic cells at 100 nM measured after 48 hrs by Annexin V-FITC/7-AAD staining based flow cytometric analysis (reference value: 1.96 %); format: functional
BaF3 [21] = assay: Antiproliferative activity against mouse BaF3 cells stably expressing KIF5B-RET-G810S mutant incubated for 72 hrs by CCK-8 assay; format: functional, cell-based; conditions: BaF3, 72 h
[22] = Induction of apoptosis in mouse BaF3 cells stably expressing KIF5B-RET-G810C mutant assessed as viable cells at 900 nM measured after 48 hrs by Annexin V-FITC/7-AAD staining based flow cytometric analysis (reference value: 86.58 %); format: functional; conditions: read-out: Activity
[23] = PROTAC activity at CRBN/KIF5B-RET-G810C mutant (unknown origin) expressed in mouse BaF3 cells assessed as induction of RET degradation measured after 6 hrs by Western blot analysis; format: cell-based; conditions: BaF3, 6 h
BaF3 [24] = assay: Antiproliferative activity against mouse BaF3 cells stably expressing CCDC6-RET-G810C mutant incubated for 72 hrs by CCK-8 assay; format: functional, cell-based; conditions: BaF3, 72 h
[25] = Cmax in male ICR mouse at 10 mg/kg, ip measured after 24 hrs by LC-MS/MS analysis; format: ADME, organism-based; conditions: in vivo
[26] = Induction of apoptosis in mouse BaF3 cells stably expressing KIF5B-RET-G810C mutant assessed as late apoptotic cells at 900 nM measured after 48 hrs by Annexin V-FITC/7-AAD staining based flow cytometric analysis (reference value: 1.96 %); format: functional
[27] = Effect on Shc protein level in mouse BaF3 cells stably expressing KIF5B-RET-V804M mutant assessed as fold change at 11.1 nM measured after 6 hrs by Western blot analysis (reference value: 1); format: functional
BaF3 [28] = assay: Inhibition of Shc (unknown origin) phosphorylation in mouse BaF3 cells stably expression KIF5B-RET G810R mutant at 333.3 to 3000 nM measured after 6 hrs by Western blot analysis; format: cell-based; conditions: Homo sapiens, dose 333.3-3000 nM

Protein cereblon/Eukaryotic peptide chain release factor GTP-binding subunit ERF3A (Mus musculus), sequence (Q8C7D2 whole entry, looked up): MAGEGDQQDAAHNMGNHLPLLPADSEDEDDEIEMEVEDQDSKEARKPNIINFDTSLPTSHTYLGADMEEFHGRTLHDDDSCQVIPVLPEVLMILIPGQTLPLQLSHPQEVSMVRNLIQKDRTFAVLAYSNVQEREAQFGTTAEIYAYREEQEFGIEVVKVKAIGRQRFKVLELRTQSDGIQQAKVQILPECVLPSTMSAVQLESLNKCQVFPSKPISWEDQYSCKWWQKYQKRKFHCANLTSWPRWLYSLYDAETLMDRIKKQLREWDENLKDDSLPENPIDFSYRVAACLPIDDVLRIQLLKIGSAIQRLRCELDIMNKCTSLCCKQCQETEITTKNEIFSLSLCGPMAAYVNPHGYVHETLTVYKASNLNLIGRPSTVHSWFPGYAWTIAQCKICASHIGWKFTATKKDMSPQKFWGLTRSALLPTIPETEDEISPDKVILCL
Protein cereblon/Eukaryotic peptide chain release factor GTP-binding subunit ERF3A (Mus musculus), sequence (Q8R050 whole entry, looked up): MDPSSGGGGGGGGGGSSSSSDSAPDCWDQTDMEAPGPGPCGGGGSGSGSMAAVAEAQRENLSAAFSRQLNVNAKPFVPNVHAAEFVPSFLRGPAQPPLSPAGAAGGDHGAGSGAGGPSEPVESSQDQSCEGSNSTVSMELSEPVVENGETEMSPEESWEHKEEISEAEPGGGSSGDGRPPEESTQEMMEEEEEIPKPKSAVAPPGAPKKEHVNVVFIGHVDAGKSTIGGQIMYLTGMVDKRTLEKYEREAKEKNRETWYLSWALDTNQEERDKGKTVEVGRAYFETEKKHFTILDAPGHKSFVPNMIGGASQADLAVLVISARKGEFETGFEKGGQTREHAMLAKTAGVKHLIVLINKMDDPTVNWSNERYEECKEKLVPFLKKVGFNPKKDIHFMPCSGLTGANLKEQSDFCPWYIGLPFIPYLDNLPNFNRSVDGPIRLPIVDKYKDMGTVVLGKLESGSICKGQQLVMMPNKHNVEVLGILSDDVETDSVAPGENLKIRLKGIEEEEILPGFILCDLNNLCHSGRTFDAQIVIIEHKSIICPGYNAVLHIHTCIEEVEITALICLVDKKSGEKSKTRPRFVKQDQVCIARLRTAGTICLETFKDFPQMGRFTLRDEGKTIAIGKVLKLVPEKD

## COc1ccc(CN2C3CC2CN(c2ccc(-c4cc(-c5cnn(C6CCN(CCCCCC#Cc7cccc8c7CN(C7CCC(=O)NC7=O)C8=O)CC6)c5)cn5ncc(C#N)c45)cn2)C3)cn1 (stereo not drawn)
[1]
  Activity: 1%
[2]
  fold change (FC): 0.9
[3]
  Activity: inactive
[4]
  Activity: 55.3%
[5]
  fold change (FC): 1
[6]
  Activity: 54.08%
[7]
  Ratio IC50: ~14
[8]
  Activity: 2.77%
[9]
  viability at 0.0333 µM: 74.2%
[10]
  fold change (FC): 1
[11]
  Activity: 1.79%
[12]
  fold change (FC): 0.9
BaF3 [13]
  inhibition in vivo at 30 mg/kg: 49.2%
[14]
  DC50: > 300 nM
[15]
  Ratio IC50: 6.3
[16]
  fold change (FC): 0.9
[17]
  Activity: 20.96%
BaF3 [18]
  IC50: 10 nM
[19]
  Activity: 2.91%
[20]
  Activity: 2.61%
BaF3 [21]
  IC50: 90 nM
[22]
  viability at 0.9 µM: 41%
[23]
  DC50: 73.8 nM
BaF3 [24]
  IC50: 40 nM
[25]
  Cmax: 68 ng/mL
[26]
  Activity: 3.71%
[27]
  fold change (FC): 1
BaF3 [28]
  inhibition: Active

From ChEMBL document CHEMBL6087474, “Discovery of an Efficacious RET PROTAC Degrader with Enhanced Antiproliferative Activity against Resistant Cancer Cells Harboring RET Solvent-Front Mutations” (J Med Chem, 2025)
